Test results published in patent US4188387A, “Amino-aryl 1,24-triazines useful in the treatment of diverse pain” (priority 1977, dated 1980).
“Also recorded” adds a separate entry of the source. Read-outs that look alike come from different tables or passages of the source.

Key:
[1] = Solubility; assay type: physicochemical; conditions: solvents named in the value
[2] = Analgesic activity according to […] et al. (phenyl benzoquinone injection); assay type: in vivo; conditions: oral, 30 minutes before the injection of phenyl benzoquinone
Method: The compounds are administered orally 30 minutes before the injection of phenyl benzoquinone.

[3] = test system: dental pulp; test: Electric stimulation of dental pulp in rabbits (J. CHEYMOL et al.); assay type: in vivo
[4] = Ulcerogenic effect (criteria of PFEIFER and LEWALDOWFKI); assay type: in vivo; conditions: criteria of C. J. PFEIFER and L. G. LEWALDOWFKI
Source text: J. PFEIFER and L. G. LEWALDOWFKI (Arch. Int. Pharmacodyn. 1971, 190, 5-13).

[5] = in vivo; conditions: mouse
Method: The toxicity study was carried out on the conventional mouse, weighing about 20 g.
The substances were administered orally and intraperitoneally.
The LD50 was calculated in accordance with the method of L. C. MILLER and M. L. TAINTER, Proc. Soc. exper.

[6] = ip, intraperitoneal, read-out: LD50 intraperitoneally

SMILES	solubility [1]	ED50 [2] [mg/kg]	analgesic activity in electric stimulation of dental pulp [3]	ulcerogenic effect [4]	LD50 [5, 6] [mg/kg]	LD50 ([5]; oral, read-out: LD50 orally) [mg/kg]
CN(C)c1ccc(-c2n[nH]c(=O)nc2-c2ccc(N(C)C)cc2)cc1	Soluble in aqueous dilute bases and acids; also recorded: poorly soluble in alcohol, benzene, methylene chloride, chloroform; also recorded: Insoluble in ether					
CC(=O)Oc1ccccc1C(=O)O [Acetylsalicylic acid, reference compound]		100				
O=C(OCC(O)CO)c1ccccc1Nc1ccnc2cc(Cl)ccc12 (stereo not drawn) [Glaphenine, reference compound]		36				
CN(C)c1ccc(-c2nc(=O)n(C)nc2-c2ccc(N(C)C)cc2)cc1 [ST 729, 2-methyl 3-oxo 5,6-di(paradimethylamino-phenyl) as triazine]	insoluble in water, dilute bases, benzene, and ether; also recorded: Soluble in dilute acids, alcohol and methylene chloride	1	confirmed	without ulcerogenic effect		
CN(C)c1ccc(-c2n[nH]c(=O)nc2-c2ccccc2Cl)cc1 [ST 745]	Insoluble in water, benzene, and ether; also recorded: Soluble in dilute bases and acids, ethanol, and methylene chloride					
CN(C)c1ccc(-c2nn(C)c(=O)nc2-c2ccccc2Cl)cc1 [ST 746, 2-methyl 3-oxo 5(orthochlorophenyl) 6(paradimethylaminophenyl) as. triazine]	Insoluble in water, dilute bases and ether; also recorded: Soluble in methylene chloride, benzene, alcohol, chloroform and dilute acids	100			300	1000
CN(C)c1ccc(-c2nn(C)c(=O)nc2-c2ccc(Cl)cc2)cc1 [ST 761, 2-methyl 3-oxo 5(parachlorophenyl) 6(p-dimethylaminophenyl) as triazine]	Soluble in dilute acids, CH2 Cl2, and chloroform; also recorded: Insoluble in water, dilute bases, and ether	4			400	1500
CN(C)c1ccc(-c2nc(=O)n(CCN3CCOCC3)nc2-c2ccc(N(C)C)cc2)cc1 [ST 767, 2 Ethyl morpholino 3-oxo 5,6 di(paradimethylaminophenyl) as. triazine]	Soluble in dilute aqueous acids, alcohol, methylene chloride, and chloroform; also recorded: Insoluble in water and dilute bases, benzene and ether	1 to 50				> 1000
CCN(CC)c1ccc(-c2nnc(O)nc2-c2ccc(N(CC)CC)cc2)cc1 [ST 770, 3-oxo 5,6-di(paradiethylaminophenyl) as triazine]	Soluble in dilute acids and bases, alcohol, benzene, and methylene chloride					
CCN(CC)c1ccc(-c2nc(=O)n(C)nc2-c2ccc(N(CC)CC)cc2)cc1 [ST 771, 2-methyl 3-oxo 5,6-di(paradiethylaminophenyl) as triazine]	Soluble in dilute aqueous acids, alcohol, methylene chloride, and chloroform; also recorded: Insoluble in water, dilute bases, benzene, ether					> 1000
C=CCn1nc(-c2ccc(N(C)C)cc2)c(-c2ccc(N(C)C)cc2)nc1=O [ST 776, 2-allyl 3-oxo 5,6-di(paradimethylaminophenyl) as triazine]	Soluble in dilute aqueous acids, alcohol, benzene, methylene chloride, and chloroform; also recorded: Insoluble in water, bases, and ether	1 to 50	confirmed	without ulcerogenic effect		> 1000
CN(C)CCCn1nc(-c2ccc(N(C)C)cc2)c(-c2ccc(N(C)C)cc2)nc1=O [ST 778]	Soluble in dilute aqueous acids, alcohol, benzene, methylene chloride, and chloroform; also recorded: Insoluble in water, dilute bases and ether	1 to 50				> 1000
CCN(CC)CCn1nc(-c2ccc(N(C)C)cc2)c(-c2ccc(N(C)C)cc2)nc1=O [ST 790, 2-diethylaminoethyl 3-oxo 5,6(paradimethylaminophenyl) as triazine]	Soluble in dilute aqueous acids, alcohol, benzene, methylene chloride, and chloroform; also recorded: Insoluble in bases, water, and ether	1 to 50				> 1000
CN(C)c1ccc(-c2nc(=S)n(C)nc2-c2ccc(N(C)C)cc2)cc1 [ST 811, 2-methyl 3-thione 5,6-di(paradimethylaminophenyl)as triazine]	Soluble in aqueous dilute acids, alcohols, and methylene chloride; also recorded: Insoluble in water, aqueous bases, and ether	1 to 50				> 1000
